System: 83 tyrosine kinases
Assay: Panel of 83 TR-FRET tyrosine kinase assays
Type: biochemical
Conditions: 83 tyrosine kinases tested; conditions of Example 1
Description: TR-FRET kinase assays are performed under standardized conditions: various individual kinases are incubated with 50 nM of kinase substrate BRB1 labeled with the TR-FRET acceptor dye ULight (PerkinElmer) and 200 micromolar ATP in 10 μL of kinase assay buffer (50 mM HEPES pH7.5, 10 mM MgCl2, 3 mM MnCl2, 1 mM EGTA, 2 mM DTT and 0.01% Tween-20) for 2 hours at room temperature. Reactions are stopped with EDTA, and anti-phospho-tyrosine antibodies (clone PT66) labeled with the TR-FRET europium chelate donor dye are added to a final concentration of 2 nM in a final volume of 20 μL. The TR-FRET signal emitted at 665 nm is read one hour after the addition of antibodies using a TR-FRET plate reader such as the Envision® Multilabel Plate reader (PerkinElmer). The emitted signal at 665 nm is proportional to the extent of peptide phosphorylation, Control reactions indicative of background are performed excluding ATP from the reaction.
Assay conditions are identical to those used described for FIG. 1.
The BRB2 peptide is tested with 83 tyrosine kinases in assay conditions identical to those used for BRB1 in Example 1. Data obtained with BRB2 indicate that the peptide is phosphorylated by 65 kinases out of 83 (78%), with signal to noise ratio of >3.

CGG E AYE AYE AYE AYA EYE ARR (CGGEAYEAYEAYEAYAEYEARR; tyrosine kinase substrate peptide) [BRB2]
Number of kinases out of 83 that phosphorylated the peptide with signal to noise ratio of >3: 65
Percentage of 83 kinases that phosphorylated the peptide with signal to noise ratio of >3: 78%
